What all share (format): cell-based
Assay [1] concerns WT HeLa cells expressing TDP-4FL. Briefly: Immunofluorescence of TDP-4FL inclusion morphology, WT HeLa. The conditions noted are these: for Proportion of Morphology: Aggregate / Proportion of Morphology: Anisosome: WT. How it is done: (§1) HeLa Cells were plated onto glass coverslips and transfected with TDP-4FL using Fugene HD for 24 hours. Cells were fixed with 4% paraformaldehyde (Electron Microscopy Sciences), permeabilized with 0.1% Triton-X (Thermo Fisher Scientific), and blocked with 2% FBS DPBS. Primary antibodies were diluted in 2% FBS DPBS. Cells were stained with 300 nM DAPI, and coverslips were mounted onto glass slides using ProLong Glass Antifade Mountant (Thermo Fisher Scientific). Confocal images were obtained using a Leica TCS SPE laser scanning confocal microscope.
(A) High power magnification immunofluorescence confocal images of HeLa cells expressing TDP-4FL stained for myc-TDP (green) Scale bar, 5 µm. […]
(C) Representative confocal microscopy immunofluorescence confocal images of HeLa cells […]
(§2) yellow represent cells that were categorized as anisosome morphology. Nuclei outline in white represent cells that were categorized as aggregate morphology. Cells with approximately more than 50% anisosome inclusions were categorized as anisosome morphology whereas cells with approximately more than 50% aggregate-like inclusions were categorized as aggregate morphology. Binucleate cells were excluded from the total counts. Scale bar, 10 µm.
(§3) (1 picture or pasted object on this page, not shown here)

Assay [2] concerns R155H HeLa cells expressing TDP-4FL. Briefly: Immunofluorescence of TDP-4FL inclusion morphology, R155H HeLa. How it is done:
as §1, with “microscope. Primary antibodies used include mouse anti-Myc (9E10), rabbit anti-Myc (ab9106), mouse anti-VCP (NB120-11433), and mouse anti-ubiquitin (ST1200, Millipore) with Alexa Flour 488 or 568 (Invitrogen) as secondary antibodies. […]” for “microscope.”
(§4) morphologies with MG132 treatment.
(§5) (A) High power magnification immunofluorescence confocal images of HeLa cells expressing TDP-4FL stained for myc-TDP (green) Scale bar, 5 µm. (B) Immunofluorescence confocal images of HeLa cells treated with or without 5% 1’6-Hexanediol for 10 minutes stained for myc-TDP (green) or DAPI (blue). Scale bar, 5 µm. (C) Representative confocal microscopy immunofluorescence confocal images of HeLa cells […]
as §2, §3

The subject of assay [3] is A232E HeLa cells expressing TDP-4FL. In words: Immunofluorescence of TDP-4FL inclusion morphology, A232E HeLa. How it is done:
as §1, with “microscope. Primary antibodies used include mouse anti-Myc (9E10), rabbit anti-Myc (ab9106), mouse anti-VCP (NB120-11433), and mouse anti-ubiquitin (ST1200, Millipore) with Alexa Flour 488 or 568 (Invitrogen) as secondary antibodies. […]” for “microscope.”
as §4, §5, §2, §3

Where “and” joins values, the source holds several entries; their conditions need not be identical. Identical values can stand only once. Residues, ends and D or L forms follow the SMILES beside them. *: point of attachment. Cbz = O=C(OCc1ccccc1)*

`CC(C)C[C@@H](C=O)NC(=O)[C@H](CC(C)C)NC(=O)[C@H](CC(C)C)NC(=O)OCc1ccccc1` [MG132] (Cbz-Leu-Leu-Leu-aldehyde): in assay [1] (4 μM MG132, 1 μM ixazomib or 1 μM epoxomicin, 3 or 6 hours), the “TDP-4FL inclusion size and morphology upon proteasome inhibition” value was “coalesced into larger, irregularly shaped aggregates”. The “Proportion of Morphology: Aggregate” value in assay [1] (MG132 3 hours) is 0.538 and 0.500 and 0.591 and 0.474; in assay [1] (MG132 6 hours) it was 0.636 and 0.719 and 0.766; in assay [2] (MG132 3 hours) it was 0.608 and 0.623 and 0.684 and 0.640; in assay [2] (MG132 6 hours), 0.768 and 0.744 and 0.727; in assay [3] (MG132 3 hours) it was 0.604 and 0.568 and 0.630 and 0.595; in assay [3] (MG132 6 hours) it was 0.766 and 0.785 and 0.833. Further, the “Proportion of Morphology: Anisosome” value in assay [1] (MG132 3 hours) is 0.462 and 0.500 and 0.409 and 0.526; in assay [1] (MG132 6 hours), 0.364 and 0.281 and 0.234; in assay [2] (MG132 3 hours), 0.392 and 0.377 and 0.316 and 0.360; in assay [2] (MG132 6 hours), 0.232 and 0.256 and 0.273; in assay [3] (MG132 3 hours), 0.396 and 0.432 and 0.370 and 0.405; in assay [3] (MG132 6 hours) it was 0.234 and 0.215 and 0.167.
